In US10238624B2, “Composition for activating longevity genes, containing kojic acid derivative as active ingredient” (AMOREPACIFIC CORPORATION, priority 2015, dated 2019):

Legend:
Format in all cases: cell-based
ERCC8 mRNA [1] = assay: Relative expression of ERCC8 mRNA in fibroblasts (TaqMan RT-PCR); conditions: normal human fibroblasts, 10 ppm, 37° C., 24 hours; control = 1.0
Experimental: (§1) In order to investigate the effect of the kojic acid derivative according to the present disclosure on the activation of longevity genes, the effect of kojyl methylenedioxycinnamate on the activation of Sirt-1, Klotho, XPD and ERCC8 was compared with that of retinol using normal human keratinocytes (NHKs) and normal human fibroblasts (NHFs).
(§2) Specifically, after treating the keratinocytes (NHKs) and fibroblasts (NHFs) with kojyl methylenedioxycinnamate or retinol at 10 ppm and incubating them at 37° C. for 24 hours, the relative expression of Sirt-1, Klotho, XPD and ERCC8 mRNAs was compared by isolating the total RNAs from the cells. The NHFs were purchased from Lonza (Allendale, N.J., USA) and incubated at 37° C. for 24 hours using DMEM after transferring 2×10^5 cells onto a 60-mm dish. After discarding the medium, the cells were transferred to a fresh tissue culture flask. […]
(§3) The total RNAs were isolated using TRIzol™ (Invitrogen, Carlsbad, Calif., USA) according to the manufacturer's instructions. RNA concentration was measured spectrophotometrically and RNA integrity was measured using BioAnalyzer 2100 (Agilent Technologies, Santa Clara, Calif., USA). […] Target gene expression level was measured by quantitative real-time TaqMan RT-PCR (7500Fast, Applied Biosystems, Foster City, Calif., USA). […]

FoxO3a = FoxO3a activation by nuclear translocation rate in human MNT1 melanoma cells (DAPI/anti-FoxO3a confocal microscopy); conditions: 48 hours; for nuclear translocation rate: control 13.2%
Experimental: In order to investigate the effect of the kojic acid derivative according to the present disclosure on the activation of longevity genes, the effect of the kojyl methylenedioxycinnamate seletinoid G on the activation of the FoxO3a gene was investigated by measuring nuclear translocation rate using human MNT1 melanoma cells purchased from Lonza.
The degree of FoxO3a activation was evaluated based on violet fluorescence resulting from the overlapping of red and blue fluorescence. • Primary antibody: anti-FoxO3a (1:200), 4° C., overnight. • Secondary antibody: Alexa Fluor 555-conjugated goat (1:5000), room temperature, 1 hour.

Klotho mRNA [2] = assay: Relative expression of Klotho mRNA in fibroblasts (TaqMan RT-PCR); conditions: normal human fibroblasts, 10 ppm, 37° C., 24 hours; control = 1.0
Experimental: as §1, §2, §3

Sirt-1 mRNA [3] = assay: Relative expression of Sirt-1 mRNA in keratinocytes (TaqMan RT-PCR); conditions: normal human keratinocytes, 10 ppm, 37° C., 24 hours; control = 1.0
Experimental: as §1, §2, §3

Sirt-1 mRNA [4] = assay: Relative expression of Sirt-1 mRNA in fibroblasts (TaqMan RT-PCR); conditions: normal human fibroblasts, 10 ppm, 37° C., 24 hours; control = 1.0
Experimental: as §1, §2, §3

Klotho mRNA [5] = assay: Relative expression of Klotho mRNA in keratinocytes (TaqMan RT-PCR); conditions: normal human keratinocytes, 10 ppm, 37° C., 24 hours; control = 1.0
Experimental: as §1, §2, §3

XPD mRNA [6] = assay: Relative expression of XPD mRNA in fibroblasts (TaqMan RT-PCR); conditions: normal human fibroblasts, 10 ppm, 37° C., 24 hours; control = 1.0
Experimental: as §1, §2, §3

ERCC8 mRNA [7] = assay: Relative expression of ERCC8 mRNA in keratinocytes (TaqMan RT-PCR); conditions: normal human keratinocytes, 10 ppm, 37° C., 24 hours; control = 1.0
Experimental: as §1, §2, §3

XPD mRNA [8] = assay: Relative expression of XPD mRNA in keratinocytes (TaqMan RT-PCR); conditions: normal human keratinocytes, 10 ppm, 37° C., 24 hours; control = 1.0
Experimental: as §1, §2, §3

Compound | relative expression of ERCC8 mRNA (ERCC8 mRNA [1]) | activation of the longevity gene FoxO3a (in words) (FoxO3a; 15-450 ppm) | nuclear translocation rate (FoxO3a; 15 ppm) | nuclear translocation rate (FoxO3a; 150 ppm) | nuclear translocation rate (FoxO3a; 450 ppm) | relative expression of Klotho mRNA (Klotho mRNA [2]) | relative expression of Sirt-1 mRNA (Sirt-1 mRNA [3]) | relative expression of Sirt-1 mRNA (Sirt-1 mRNA [4]) | relative expression of Klotho mRNA (Klotho mRNA [5]) | relative expression of XPD mRNA (XPD mRNA [6]) | relative expression of ERCC8 mRNA (ERCC8 mRNA [7]) | relative expression of XPD mRNA (XPD mRNA [8])
O=C(/C=C/c1ccc2c(c1)OCO2)OCc1cc(=O)c(O)co1 [Kojyl methylenedioxycinnamate, kojyl methylenedioxycinnamate] | 1.4 | remarkably activates | 35.7% | 86.3% | 66.9% | 2.5 | 5.2 | 2.4 | 9.1 | 3.5 | 1.9 | 8.5
CC1=C(/C=C/C(C)=C/C=C/C(C)=C/CO)C(C)(C)CCC1 [Retinol, retinol, reference compound] | 1.3 |  |  |  |  | 2.2 | 4.6 | 2.5 | 8.9 | 2.5 | 1.5 | 8.2
